Laboratory results reported in ChEMBL document CHEMBL5154798, “Structure-based discovery of receptor tyrosine kinase AXL degraders with excellent anti-tumor activity by selectively degrading AXL and inducing methuosis” (Eur J Med Chem, 2022).
Calls of active or inactive are those of the source. The calls are words filed in the database; no cut-off is given here.

Experiments:
[1] = Cytotoxicity against human MCF-10A cells after 72 hrs by MTT assay; assay type: toxicity, cell-based
[2] = Cytotoxicity against human GES1 cells after 72 hrs by MTT assay; assay type: toxicity, cell-based
MDA-MB-231 [3] = assay: Antiproliferative activity against human MDA-MB-231 cells highly expressing AXL after 72 hrs by MTT assay; conditions: MDA-MB-231, 72 h
4T1 = assay: Antiproliferative activity against mouse 4T1 cells highly expressing AXL after 72 hrs by MTT assay; conditions: 4T1, 72 h
[4] = target: T1, Tyrosine-protein kinase receptor UFO (Homo sapiens, UniProt P30530); assay: Inhibition of AXL (unknown origin) measured by FRET assay
T1 sequence (P30530 whole entry): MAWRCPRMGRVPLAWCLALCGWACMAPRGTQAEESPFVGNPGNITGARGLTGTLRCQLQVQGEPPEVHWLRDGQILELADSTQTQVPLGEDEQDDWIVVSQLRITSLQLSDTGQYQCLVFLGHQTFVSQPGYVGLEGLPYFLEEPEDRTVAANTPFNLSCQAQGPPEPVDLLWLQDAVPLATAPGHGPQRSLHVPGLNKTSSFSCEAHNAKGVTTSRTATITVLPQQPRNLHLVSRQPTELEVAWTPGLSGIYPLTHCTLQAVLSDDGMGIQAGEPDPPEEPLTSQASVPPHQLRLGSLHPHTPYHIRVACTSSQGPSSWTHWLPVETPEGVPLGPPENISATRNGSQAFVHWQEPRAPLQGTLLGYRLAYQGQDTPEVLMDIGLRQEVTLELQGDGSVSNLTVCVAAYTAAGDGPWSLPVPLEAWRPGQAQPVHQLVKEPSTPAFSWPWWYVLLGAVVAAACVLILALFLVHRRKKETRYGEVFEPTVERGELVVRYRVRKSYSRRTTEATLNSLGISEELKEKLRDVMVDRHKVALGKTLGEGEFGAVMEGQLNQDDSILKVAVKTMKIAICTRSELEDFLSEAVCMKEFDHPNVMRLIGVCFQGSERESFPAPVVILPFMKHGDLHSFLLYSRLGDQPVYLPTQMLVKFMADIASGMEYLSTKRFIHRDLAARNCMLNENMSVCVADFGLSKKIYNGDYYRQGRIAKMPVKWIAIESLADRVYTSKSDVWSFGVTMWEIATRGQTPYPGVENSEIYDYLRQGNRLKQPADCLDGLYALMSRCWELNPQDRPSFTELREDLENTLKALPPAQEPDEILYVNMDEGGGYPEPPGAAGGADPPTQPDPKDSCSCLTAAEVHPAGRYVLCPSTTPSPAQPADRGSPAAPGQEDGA

[5] = Systemic toxicity in female BALB/c nude mouse xenografted with human MDA-MB-231 cells assessed as inflammatory cell infiltration in lung at 25 mg/kg, ip; assay type: organism-based; conditions: in vivo
[6] = Systemic toxicity in female BALB/c nude mouse xenografted with human MDA-MB-231 cells assessed as necrosis of kidney tissue at 25 mg/kg, ip; assay type: organism-based; conditions: in vivo
[7] = Systemic toxicity in female BALB/c nude mouse xenografted with human MDA-MB-231 cells assessed as necrosis of lung tissue at 25 mg/kg, ip; assay type: organism-based; conditions: in vivo
MDA-MB-231 [8] = assay: Antitumor activity against human MDA-MB-231 cells xenografted in female BALB/c nude mouse assessed as tumor growth inhibition at 25 mg/kg, ip; assay type: functional, organism-based
[9] = Systemic toxicity in female BALB/c nude mouse xenografted with human MDA-MB-231 cells assessed as necrosis of liver tissue at 25 mg/kg, ip; assay type: organism-based; conditions: in vivo
[10] = Systemic toxicity in female BALB/c nude mouse xenografted with human MDA-MB-231 cells assessed as inflammatory cell infiltration in spleen at 25 mg/kg, ip; assay type: organism-based; conditions: in vivo
[11] = Systemic toxicity in female BALB/c nude mouse xenografted with human MDA-MB-231 cells assessed as necrosis of heart tissue at 25 mg/kg, ip; assay type: organism-based; conditions: in vivo
[12] = Systemic toxicity in female BALB/c nude mouse xenografted with human MDA-MB-231 cells assessed as inflammatory cell infiltration in heart at 25 mg/kg, ip; assay type: organism-based; conditions: in vivo
[13] = Systemic toxicity in female BALB/c nude mouse xenografted with human MDA-MB-231 cells assessed as inflammatory cell infiltration in liver at 25 mg/kg, ip; assay type: organism-based; conditions: in vivo
[14] = Systemic toxicity in female BALB/c nude mouse xenografted with human MDA-MB-231 cells assessed as inflammatory cell infiltration in kidney at 25 mg/kg, ip; assay type: organism-based; conditions: in vivo
[15] = Toxicity in female BALB/c nude mouse xenografted with human MDA-MB-231 cells assessed as change in body wieght at 25 mg/kg, ip; assay type: organism-based; conditions: in vivo
[16] = Systemic toxicity in female BALB/c nude mouse xenografted with human MDA-MB-231 cells assessed as necrosis of spleen tissue at 25 mg/kg, ip; assay type: organism-based; conditions: in vivo

## Nc1nc(NCCNC(=O)CCCCCCNc2cccc3c2CN(C2CCC(=O)NC2=O)C3=O)nn1-c1cc2c(nn1)-c1ccccc1CCC2 (configuration not stated)
[1]
  IC50 at 72 h: > 60 µM
[2]
  IC50 at 72 h: > 60 µM

## Nc1nc(NCCNC(=O)CCCCCNc2cccc3c2CN(C2CCC(=O)NC2=O)C3=O)nn1-c1ccc(-c2ccccc2)nn1 (configuration not stated)
MDA-MB-231 [3]
  IC50: 31.7 µM
4T1
  IC50: 27.9 µM
[1]
  IC50 at 72 h: > 60 µM
[2]
  IC50 at 72 h: > 60 µM

## Nc1nc(Nc2ccc(CNC(=O)CCCCCCNc3cccc4c3CN(C3CCC(=O)NC3=O)C4=O)cc2)nn1-c1ccc(-c2ccccc2)nn1 (configuration not stated)
MDA-MB-231 [3]
  IC50: 28.5 µM
4T1
  IC50: 24.6 µM
[1]
  IC50 at 72 h: > 60 µM
[2]
  IC50 at 72 h: > 60 µM

## Nc1nc(Nc2ccc(CNC(=O)CCCNc3cccc4c3CN(C3CCC(=O)NC3=O)C4=O)cc2)nn1-c1ccc(-c2ccccc2)nn1 (configuration not stated)
MDA-MB-231 [3]
  IC50: 48 µM
4T1
  IC50: > 60 µM
[1]
  IC50 at 72 h: > 60 µM
[2]
  IC50 at 72 h: > 60 µM

## Nc1nc(NCCNC(=O)CCCCCCNc2cccc3c2CN(C2CCC(=O)NC2=O)C3=O)nn1-c1ccc(-c2ccccc2)nn1 (configuration not stated)
MDA-MB-231 [3]
  IC50: > 60 µM
4T1
  IC50: > 60 µM
[4]
  IC50: > 60 µM
[1]
  IC50 at 72 h: > 60 µM
[2]
  IC50 at 72 h: > 60 µM

## Nc1nc(Nc2ccc(CNC(=O)CCCCNc3cccc4c3CN(C3CCC(=O)NC3=O)C4=O)cc2)nn1-c1ccc(-c2ccccc2)nn1 (configuration not stated)
MDA-MB-231 [3]
  IC50: 35.7 µM
4T1
  IC50: 54.2 µM
[1]
  IC50 at 72 h: > 60 µM
[2]
  IC50 at 72 h: > 60 µM

## Nc1nc(NCCNC(=O)CCCCNc2cccc3c2CN(C2CCC(=O)NC2=O)C3=O)nn1-c1cc2c(nn1)-c1ccccc1CCC2 (configuration not stated)
MDA-MB-231 [3]
  IC50: 36.2 µM
4T1
  IC50: 7.05 µM
[1]
  IC50 at 72 h: > 60 µM
[2]
  IC50 at 72 h: > 60 µM

## Nc1nc(NCCNC(=O)CCCNc2cccc3c2CN(C2CCC(=O)NC2=O)C3=O)nn1-c1ccc(-c2ccccc2)nn1 (configuration not stated)
MDA-MB-231 [3]
  IC50: > 60 µM
4T1
  IC50: > 60 µM
[4]
  IC50: > 60 µM
[1]
  IC50 at 72 h: > 60 µM
[2]
  IC50 at 72 h: > 60 µM

## Nc1nc(Nc2ccc3c(c2)CC[C@@H](N2CCCC2)CC3)nn1-c1cc2c(nn1)-c1ccccc1CCC2 [BEMCENTINIB]
[5]
  Activity: Non-Toxic
[6]
  Activity: Non-Toxic
[7]
  Activity: Non-Toxic
MDA-MB-231 [3]
  IC50: 2.84 µM
MDA-MB-231 [8]
  TGI: Active
[9]
  Activity: Non-Toxic
[10]
  Activity: Non-Toxic
4T1
  IC50: 0.94 µM
[11]
  Activity: Non-Toxic
[12]
  Activity: Non-Toxic
[13]
  Activity: Non-Toxic
[1]
  IC50 at 72 h: > 60 µM
[2]
  IC50 at 72 h: > 60 µM
[14]
  Activity: Non-Toxic
[15]
  Activity: Non-Toxic
[16]
  Activity: Non-Toxic

## Nc1nc(Nc2ccc(CNC(=O)CCCNc3cccc4c3CN(C3CCC(=O)NC3=O)C4=O)cc2)nn1-c1cc2c(nn1)-c1ccccc1CCC2 (configuration not stated)
MDA-MB-231 [3]
  IC50: 41.3 µM
4T1
  IC50: 34.6 µM
[1]
  IC50 at 72 h: > 60 µM
[2]
  IC50 at 72 h: > 60 µM
